Experimental findings from EP1849783A1, “Octahydropentalene-substituted pyrazoline compounds, their preparation and use as medicaments” (LABORATORIOS DEL DR. ESTEVE, S.A., priority 2006, dated 2007) are described below.

Each structure is given as a SMILES string. Where a name gives a salt, the structure may show the parent alone.

The target of assay [1] is T1, transfected human CB1 receptors (Homo sapiens, UniProt P21554).
T1 construct: purchased Receptor Biology, Inc
Description: in-vitro determination of affinity to CB1-Receptor (radioligand binding). The following applies: transfected human CB1 receptors of Receptor Biology, Inc.; radioligand [^3H]-CP55940; read-out: CB1-Receptor Radiologand :[^3H]-CP55940 IC50. As to the method:
The in-vitro determination of the affinity of the inventive quaternary ammonium salts of substituted pyrazoline compounds to CB1/CB2-Rezeptors is carried out as described in the publication of Ruth A. Ross, Heather C. Brockie et al., "Agonist-inverse agonist characterization at CB1 and CB2 cannabinoid receptors of L-759633, L759656 and AM630", British Journal of Pharmacology, 126, 665-672, (1999), whereby the transfected human CB1 and CB2 receptors of Receptor Biology, Inc. are used. The radioligand used for both receptors is [^3H]-CP55940. The respective parts of the description are hereby incorporated by reference and forms part of the present disclosure.

For a further assay, the system named is cannabinoid receptors. The experiment in a line: Mouse tetrad model, antagonistic activity against Win 55212-2. The class given is in vivo, Male NMRI mice. The following applies: against Win 55212-2 (1.25 mg/kg intravenous), substance injected 5 minutes before the agonist, mice. The source says:
Substances with affinity for cannabinoid receptors are known to produce a wide range of pharmacological effects. It is also known that intravenous administration of a substance with affinity for cannabinoid receptors in mice produces analgesia , hypothermia, sedation and catalepsy. Individually, none of these effects can be considered as proof that a tested substance has affinity for cannabinoid-receptors, since all of these effects are common for various classes of centrally active agents. However, substances, which show all of these effects, i.e. substances that are active in this so-called tetrad model are considered to have affinity for the cannabinoid receptors. It has further been shown that cannabinoid receptor antagonists are higly effective in blocking the effects of a cannabinoid agonist in the mouse tetrad model.
The tetrad model is described, for example, in the publication of A. C. Howlett et al, International Union of Pharmacology XXVII. Classification of Cannabinoid Receptors, Pharmacol Rev 54, 161-202, 2002 and David R. Compton et al., "In-vivo Characterization of a Specific Cannabinoid Receptor Antagonist (SR141716A) Inhibition of Tetrahydrocannbinol- induced Responses and Apparent Agonist Activity", J. Pharmacol. Exp. Ther. 277 , 2, 586-594, 1996. The corresponding parts of the description are hereby incorporated by reference. […]
Before testing in the behavioral procedures given below, mice are acclimatized to the experimental setting. Pre-Treatment control values are determined for analgesia hot plate latency (in seconds), rectal temperature, sedation and catalepsy.
In order to determine the agonistic activty of the substance to be tested, the mice are injected intravenously with the substance to be tested or the vehicle alone. 15 minutes after injection, latency in hot plate analgesia is measured. Rectal temperature, sedation and catalepsy are measured 20 minutes after injection.
In order to determine the antagonistic activity the identical procedure is used as for the determination of the agonistic effects, but with the difference that the substance to be evaluated for its antagonistic activity is injectected 5 minutes before the intravenous injection of 1.25 mg/kg Win-55,212 a known cannabinoid-receptor agonist.
The hot plate analgesia is determined according to the method described in Woolfe D. et al. "The evaluation of analgesic action of pethidine hydrochloride (Demerol)", J. Pharmacol. Exp. Ther. 80, 300-307,1944. […]
The mice are placed on a hot plate (Harvard Analgesimeter) at 55 ± 0.5 °C until they show a painful sensation by licking their paws or jumping and the time for these sensations to occur is recorded. This reading is considered the basal value (B). […]

T1 sequence (P21554 whole entry): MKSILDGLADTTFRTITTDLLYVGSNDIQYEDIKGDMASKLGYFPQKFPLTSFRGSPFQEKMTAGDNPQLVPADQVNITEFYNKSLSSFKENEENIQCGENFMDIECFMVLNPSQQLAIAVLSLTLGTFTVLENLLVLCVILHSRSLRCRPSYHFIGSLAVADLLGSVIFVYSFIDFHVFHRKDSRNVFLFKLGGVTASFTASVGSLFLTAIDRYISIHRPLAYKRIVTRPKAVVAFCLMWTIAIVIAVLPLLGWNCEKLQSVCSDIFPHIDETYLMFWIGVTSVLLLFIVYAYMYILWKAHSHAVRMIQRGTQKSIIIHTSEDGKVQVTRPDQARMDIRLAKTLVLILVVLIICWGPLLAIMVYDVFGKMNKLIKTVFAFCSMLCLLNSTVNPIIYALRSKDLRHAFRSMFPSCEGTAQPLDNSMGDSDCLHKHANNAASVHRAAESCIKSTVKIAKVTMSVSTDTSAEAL

The IC50 is the point on the concentration scale where inhibition reaches its midpoint. Take `O=C(NN1CC2CCCC2C1)C1=NN(c2ccc(Cl)cc2Cl)C(c2ccc(Cl)cc2)C1` (stereo not shown) [1 (HCl)]: the half-maximal inhibitory concentration (IC50) in assay [1] amounted to 70.8 nM. Also, the “Antagonistic Effect in (%)” value in the assay on cannabinoid receptors (1.25 mg/kg) came to 117 ± 3%.

Take `O=C(NN1CC2CCCC2C1)C1=NN(c2ccc(Cl)cc2Cl)C(c2ccc(Cl)cc2)C1` (stereo not shown) [Example 1, 5-(4-chlorophenyl)-1-(2,4-dichlorophenyl)-N-(hexahydrocyclopenta[c]pyrrol-2(1H)-yl)-4,5-dihydro-1H-pyrazole-3-carboxamide]: in assay [1], the concentration for half-maximal inhibition (IC50) is 12.6 nM. Also, in the assay with cannabinoid receptors (1.25 mg/kg), the “Antagonistic Effect in (%)” value is listed as 122 ± 4%.

Regarding `O=C(NN1CC2CCCC2C1)C1=NN(c2ccc(Cl)cc2Cl)[C@@H](c2ccc(Cl)cc2)C1` (stereo partly drawn) [Example 2, (R)-5-(4-chlorophenyl)-1-(2,4-dichlorophenyl)-N-(hexahydrocyclopenta[c]pyrrol-2(1H)-yl)-4,5-dihydro-1H-pyrazole-3-carboxamide], the IC50 in assay [1] is 15.8 nM. In addition, in the assay with cannabinoid receptors, the “Antagonistic Effect in (%)” value worked out at 125.9%.

Take `O=C(NN1CC2CCCC2C1)C1=NN(c2ccc(Cl)cc2Cl)C(c2ccc(Br)cc2)C1` (stereo not shown) [Example 4, 5-(4-bromophenyl)-1-(2,4-dichlorophenyl)-N-(hexahydrocyclopenta[c]pyrrol-2(1H)-yl)-4,5-dihydro-1H-pyrazole-3-carboxamide]: in the assay on cannabinoid receptors, the “Antagonistic Effect in (%)” value was found to be 121 ± 4%.
